Laboratory results as given in the NIST ThermoML archive (doi:10.1016/j.jct.2012.08.023).

Experiment: mn = molality of the nth substance listed, in mol/kg
Conditions: 101.3 kPa, Liquid; for speed of sound: Single path-length method; for mass density: Vibrating tube method

CCCCn1cc[n+](C)c1.[Br-] [1-butyl-3-methylimidazolium bromide] + O
Conditions | mass density, 288.15 K [kg/m3] | mass density, 298.15 K [kg/m3] | mass density, 308.15 K [kg/m3] | speed of sound, 288.15 K [m/s] | speed of sound, 298.15 K [m/s] | speed of sound, 308.15 K [m/s]
m1 = 0.0915 | 996.409 | 996.531 | 991.528 | 1490.7 | 1516.7 | 1535.5
m1 = 0.0969 | 1001.56 | 999.293 | 996.365 | 1489.1 | 1517 | 1537.9
m1 = 0.1014 | 989.502 | 997.101 | 992.565 | 1490.9 | 1520.2 | 1540.2
m1 = 0.2656 | 1010.44 | 1007.45 | 1005.51 | 1511.6 | 1536.2 | 1554.5
m1 = 0.2803 | 1007.11 | 1005.82 | 1002.41 | 1512.3 | 1536.8 | 1555.3
m1 = 0.2869 | 1010.49 | 1005.51 | 1001.76 | 1512.3 | 1536.8 | 1555.3

COCCOCCO [2-(2-methoxyethoxy)ethanol] + O
Conditions | mass density, 288.15 K [kg/m3] | mass density, 298.15 K [kg/m3] | mass density, 308.15 K [kg/m3] | speed of sound, 288.15 K [m/s] | speed of sound, 298.15 K [m/s] | speed of sound, 308.15 K [m/s]
m1 = 0.1113 | 999.888 | 997.716 | 994.536 | 1477.1 | 1505.1 | 1526.8
m1 = 0.1346 | 1000.02 | 997.84 | 994.655 | 1480.4 | 1508.5 | 1529.1
m1 = 0.3285 | 1001.11 | 998.835 | 995.615 | 1494.2 | 1519.7 | 1538.8
m1 = 0.4005 | 1001.49 | 999.182 | 995.953 | 1498.2 | 1523.4 | 1541.4
m1 = 0.62 | 1002.6 | 1000.22 | 996.952 | 1516.3 | 1537.8 | 1553.6
m1 = 0.7114 | 1003.02 | 1000.62 | 997.341 | 1523.8 | 1544.5 | 1558.8
m1 = 0.9906 | 1004.26 | 1001.81 | 998.476 | 1539.6 | 1556.8 | 1569.1
m1 = 1.052 | 1004.52 | 1002.03 | 993.955 | 1548 | 1497.7 | 1574.7

COCCOCCOCCO [2-[2-(2-methoxyethoxy)ethoxy]ethanol] + O
Conditions | mass density, 288.15 K [kg/m3] | mass density, 298.15 K [kg/m3] | mass density, 308.15 K [kg/m3] | speed of sound, 288.15 K [m/s] | speed of sound, 298.15 K [m/s] | speed of sound, 308.15 K [m/s]
m1 = 0.0992 | 1000.76 | 998.595 | 995.371 | 1476.9 | 1505.2 | 1526.8
m1 = 0.2191 | 1002.54 | 1000.32 | 997.022 | 1490.1 | 1516.8 | 1535.9
m1 = 0.4289 | 1005.5 | 1003.2 | 999.755 | 1510.7 | 1533 | 1549.8
m1 = 0.5088 | 1006.57 | 1004.24 | 1000.75 | 1517.7 | 1539.4 | 1554.7
m1 = 0.5825 | 1007.53 | 1005.17 | 1001.64 | 1525 | 1544.9 | 1559.5
m1 = 0.7077 | 1009.12 | 1006.71 | 1003.1 | 1537.2 | 1555.8 | 1568.3
m1 = 0.7956 | 1010.2 | 1007.75 | 1004.09 | 1543.9 | 1560.4 | 1572.2
m1 = 0.9789 | 1012.35 | 1009.85 | 1006.07 | 1467.3 | 1570.5 | 1580

COCCO [2-methoxyethan-1-ol] + O
Conditions | mass density, 288.15 K [kg/m3] | mass density, 298.15 K [kg/m3] | mass density, 308.15 K [kg/m3] | speed of sound, 288.15 K [m/s] | speed of sound, 298.15 K [m/s] | speed of sound, 308.15 K [m/s]
m1 = 0.1766 | 999.359 | 997.221 | 994.075 | 1475.3 | 1504.9 | 1526.1
m1 = 0.3377 | 999.461 | 997.304 | 994.169 | 1487.3 | 1511.2 | 1531.6
m1 = 0.3987 | 999.495 | 997.331 | 994.202 | 1486.9 | 1513.8 | 1533.1
m1 = 0.5117 | 999.548 | 997.377 | 994.256 | 1492.9 | 1518 | 1537
m1 = 0.6355 | 999.593 | 997.421 | 994.305 | 1498.1 | 1522.9 | 1540.5
m1 = 0.7947 | 999.638 | 997.462 | 994.361 | 1506.8 | 1529.3 | 1546
m1 = 1.012 | 999.666 | 997.507 | 994.412 | 1518.1 | 1539.1 | 1553.7
